Assay results from PMC10527105, “Chirality Matters: Fine-Tuning of Novel Monoamine Reuptake Inhibitors Selectivity through Manipulation of Stereochemistry” (Biomolecules, 2023).
Like-named read-outs stand apart in the source and are kept apart here.

How the values were obtained:
Assay type in all cases: cell-based
[1] = biological target: T1, human serotonin transporter/SLC6A4 (SERT) (Homo sapiens, UniProt P31645); assay: Cellular uptake experiments: [3H]-serotonin reuptake inhibition in transporter-expressing HEK293 cells
T1 construct: expressed in transfected cells; host or cells: HEK293
T1 sequence (P31645 whole entry): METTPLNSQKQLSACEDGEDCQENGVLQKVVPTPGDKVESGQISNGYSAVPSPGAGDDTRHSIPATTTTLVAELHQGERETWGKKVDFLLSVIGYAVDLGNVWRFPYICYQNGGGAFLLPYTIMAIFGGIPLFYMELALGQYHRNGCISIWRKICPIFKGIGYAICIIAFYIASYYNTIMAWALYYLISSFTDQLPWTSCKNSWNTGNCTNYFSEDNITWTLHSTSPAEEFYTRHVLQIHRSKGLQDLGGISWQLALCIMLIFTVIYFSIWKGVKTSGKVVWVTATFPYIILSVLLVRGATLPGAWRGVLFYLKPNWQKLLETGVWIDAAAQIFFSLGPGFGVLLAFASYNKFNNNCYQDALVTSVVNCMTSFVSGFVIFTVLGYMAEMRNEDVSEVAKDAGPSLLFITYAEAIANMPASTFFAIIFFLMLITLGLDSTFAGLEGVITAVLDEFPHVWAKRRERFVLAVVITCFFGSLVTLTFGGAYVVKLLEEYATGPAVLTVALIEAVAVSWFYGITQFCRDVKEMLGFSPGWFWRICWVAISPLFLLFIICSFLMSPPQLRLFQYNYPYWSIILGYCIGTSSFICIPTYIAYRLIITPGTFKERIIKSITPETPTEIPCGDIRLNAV
Method: (§1) Cell culture. Human embryonic kidney (HEK) 293 or SK-N-MC (human neuroblastoma) cells were grown in minimum essential medium with Earle’s salts and L-glutamine, 10% heat-inactivated fetal bovine serum, and 50 mg/L gentamicin. Cells were grown in 100- or 60-mm diameter tissue culture dishes (polystyrene, Falcon) at 37 °C under an atmosphere of 5% CO2/95% air. The human dopamine transporter/SLC6A3 (DAT), noradrenaline transporter/SLC6A2 (NET), or human serotonin transporter/SLC6A4 (SERT) cDNA was stably expressed using methods as described previously.
(§2) Cellular uptake experiments. The transporter-expressing HEK293 cells were seeded in poly-D-lysine-coated 24-well plates (1 × 10^5 cells/well) and, one day later, each well was washed with 0.5 mL uptake buffer and incubated with 0.5 mL buffer containing various concentrations of the drugs. Uptake was started by the addition of [^3H]-dopamine, [^3H]-noradrenaline, or [^3H]-serotonin at a final concentration of 1 µM (specific activity 0.14 Ci/mmol) after 5 min of preincubation. After incubation for 2.5 min (SERT-cells: 5 min) at 25 °C, it was stopped by aspirating the uptake buffer and washing each well twice with 1 mL ice-cold buffer. Nonspecific uptake was determined in the presence of 10 µM mazindol (DAT- and NET-cells) or 10 µM clomipramine (SERT-cells). The radioactivity remaining in each well was determined by incubating with 0.4 mL 1% sodium dodecyl sulphate and transferring this solution into scintillation vials containing 3 mL of scintillation cocktail (Ultima Gold MV, Packard, Dovners Grove, IL, USA). The uptake buffer consisted of (mmol/L): 4 Tris–HCl; 6.25 4-(2-hydroxyethyl)-1-piperazineethanesulfonic acid (HEPES); 120 NaCl; 5 KCl; 1.2 CaCl2; 1.2 MgSO4; 5.6 D-glucose; 0.5 ascorbic acid; pH 7.1.

[2] = biological target: T2, human dopamine transporter/SLC6A3 (DAT) (Homo sapiens, UniProt Q01959); assay: Cellular uptake experiments: [3H]-dopamine reuptake inhibition in transporter-expressing HEK293 cells; settings: cells stably expressing DAT, [3H]-dopamine 1 µM, screening cut-off 50 µM
T2 construct: expressed in transfected cells; host or cells: HEK293
T2 sequence (Q01959 whole entry): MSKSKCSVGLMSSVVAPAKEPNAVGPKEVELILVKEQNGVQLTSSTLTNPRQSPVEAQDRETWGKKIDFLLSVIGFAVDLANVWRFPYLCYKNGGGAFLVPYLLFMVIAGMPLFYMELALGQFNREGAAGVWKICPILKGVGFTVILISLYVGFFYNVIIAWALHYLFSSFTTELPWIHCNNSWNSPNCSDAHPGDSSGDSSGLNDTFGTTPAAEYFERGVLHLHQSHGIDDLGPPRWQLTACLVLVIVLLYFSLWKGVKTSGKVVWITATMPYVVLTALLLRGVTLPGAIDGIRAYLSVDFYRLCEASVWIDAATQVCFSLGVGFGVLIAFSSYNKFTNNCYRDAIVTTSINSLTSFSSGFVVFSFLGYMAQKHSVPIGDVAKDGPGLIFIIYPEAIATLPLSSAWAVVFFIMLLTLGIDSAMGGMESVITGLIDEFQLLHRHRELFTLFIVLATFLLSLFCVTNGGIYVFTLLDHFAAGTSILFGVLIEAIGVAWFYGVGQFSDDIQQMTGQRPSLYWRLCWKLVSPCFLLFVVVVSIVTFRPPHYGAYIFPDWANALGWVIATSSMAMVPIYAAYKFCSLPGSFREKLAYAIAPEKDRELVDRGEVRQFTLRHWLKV
Method: as §1, §2

[3] = biological target: T3, noradrenaline transporter/SLC6A2 (NET) (Homo sapiens, UniProt P23975); assay: Cellular uptake experiments: [3H]-noradrenaline reuptake inhibition in transporter-expressing HEK293 cells
T3 construct: expressed in transfected cells; host or cells: HEK293
T3 sequence (P23975 whole entry): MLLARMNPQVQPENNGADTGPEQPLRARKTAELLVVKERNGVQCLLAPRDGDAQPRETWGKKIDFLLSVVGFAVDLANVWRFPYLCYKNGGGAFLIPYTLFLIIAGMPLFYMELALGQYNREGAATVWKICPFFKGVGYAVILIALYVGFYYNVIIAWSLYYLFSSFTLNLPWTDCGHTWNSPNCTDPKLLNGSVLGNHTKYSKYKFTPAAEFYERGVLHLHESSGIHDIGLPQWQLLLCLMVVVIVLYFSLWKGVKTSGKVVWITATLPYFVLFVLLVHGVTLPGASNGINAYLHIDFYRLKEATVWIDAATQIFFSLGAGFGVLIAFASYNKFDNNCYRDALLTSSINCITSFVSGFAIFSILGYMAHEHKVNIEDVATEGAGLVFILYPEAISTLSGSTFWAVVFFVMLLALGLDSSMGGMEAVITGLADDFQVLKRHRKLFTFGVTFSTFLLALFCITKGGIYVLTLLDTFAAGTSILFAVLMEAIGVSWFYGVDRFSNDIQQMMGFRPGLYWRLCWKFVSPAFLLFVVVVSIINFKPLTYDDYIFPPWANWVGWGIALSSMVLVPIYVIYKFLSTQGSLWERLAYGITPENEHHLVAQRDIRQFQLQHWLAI
Method: as §1, §2

[4] = cells stably expressing SERT; [3H]-serotonin 1 µM; screening cut-off 50 µM; read-out: Reuptake Inhibition (IC50 ± SE, µM) SERT
[5] = read-out: Reuptake Inhibition (IC50 ± SE, µM) DAT
[6] = read-out: Reuptake Inhibition (IC50 ± SE, µM) NET; cells stably expressing NET; [3H]-noradrenaline 1 µM; screening cut-off 50 µM
[7] = Reuptake Inhibition (IC50 ± SE, µM) SERT, cells stably expressing SERT; [3H]-serotonin 1 µM; screening cut-off 50 µM
[8] = Reuptake Inhibition (IC50 ± SE, µM) DAT
[9] = Reuptake Inhibition (IC50 ± SE, µM) NET, cells stably expressing NET; [3H]-noradrenaline 1 µM; screening cut-off 50 µM
[10] = read-out: Reuptake Inhibition (IC50 ± SE, µM) SERT; cells stably expressing SERT; [3H]-serotonin 1 µM; screening cut-off 50 µM
[11] = cells stably expressing NET; [3H]-noradrenaline 1 µM; screening cut-off 50 µM; read-out: Reuptake Inhibition (IC50 ± SE, µM) NET

SMILES: Cc1ccc(C(c2ccccc2)[S+]([O-])Cc2cccs2)cc1 (stereo not drawn) [Compound 6n, 2-(((phenyl(p-tolyl)methyl)sulfinyl)methyl)thiophene]
- IC50 [1, 4]: > 50 µM
- IC50 [2, 5]: > 50 µM
- IC50 [3, 6]: > 50 µM

SMILES: [O-][S+](Cc1cccs1)C(c1ccccc1)c1cccc(I)c1 (stereo not drawn) [Compound 5j, 2-((((3-iodophenyl)(phenyl)methyl)sulfinyl)methyl)thiophene]
- IC50 [1, 7]: > 50 µM
- IC50 [2, 8]: 2.09 ± 0.21 µM
- IC50 [3, 9]: > 50 µM

SMILES: [O-][S+](Cc1cccs1)C(c1ccccc1)c1ccccc1Br (stereo not drawn) [Compound 8g, 2-((((2-bromophenyl)(phenyl)methyl)sulfinyl)methyl)thiophene]
- IC50 [1, 10]: > 50 µM
- IC50 [2, 8]: 5.06 ± 0.31 µM
- IC50 [3, 6]: > 50 µM

SMILES: [O-][S+](Cc1cccs1)C(c1ccccc1)c1ccccc1Br (stereo not drawn) [Compound 6g, 2-((((2-bromophenyl)(phenyl)methyl)sulfinyl)methyl)thiophene]
- IC50 [1, 10]: > 50 µM
- IC50 [2, 8]: 12.1 ± 1 µM
- IC50 [3, 6]: > 50 µM

SMILES: [O-][S+](Cc1cccs1)C(c1ccccc1)c1cccc(I)c1 (stereo not drawn) [Compound 8j, 2-((((3-iodophenyl)(phenyl)methyl)sulfinyl)methyl)thiophene]
- IC50 [1, 10]: > 50 µM
- IC50 [2, 8]: 1.5 ± 0.17 µM
- IC50 [3, 6]: > 50 µM

SMILES: COc1ccccc1C(c1ccccc1)[S+]([O-])Cc1cccs1 [Compound 8r, (S,S)-2-((((2-methoxyphenyl)(phenyl)methyl)sulfinyl)methyl)thiophene]
- IC50 [1, 7]: > 50 µM
- IC50 [2, 8]: > 50 µM
- IC50 [3, 9]: > 50 µM

SMILES: COc1cccc(C(c2ccccc2)[S+]([O-])Cc2cccs2)c1 (stereo not drawn) [Compound 5s, 2-((((3-methoxyphenyl)(phenyl)methyl)sulfinyl)methyl)thiophene]
- IC50 [1, 7]: > 50 µM
- IC50 [2, 8]: 2.89 ± 0.47 µM
- IC50 [3, 9]: > 50 µM

SMILES: [O-][S@@+](Cc1cccs1)[C@@H](c1ccccc1)c1cccc(Cl)c1 [Compound 7e, (S,S)-2-((((3-chlorophenyl)(phenyl)methyl)sulfinyl)methyl)thiophene]
- IC50 [1, 7]: > 50 µM
- IC50 [2, 8]: 0.63 ± 0.17 µM
- IC50 [3, 9]: 29 ± 4 µM

SMILES: [O-][S+](Cc1cccs1)C(c1ccccc1)c1cccc(C(F)(F)F)c1 (stereo not drawn) [Compound 6p, 2-(((phenyl(3-(trifluoromethyl)phenyl)methyl)sulfinyl)methyl)thiophene]
- IC50 [1, 7]: > 50 µM
- IC50 [2, 8]: 22 ± 1 µM
- IC50 [3, 6]: > 50 µM

SMILES: Cc1ccccc1C(c1ccccc1)[S+]([O-])Cc1cccs1 (stereo not drawn) [Compound 6l, 2-(((phenyl(o-tolyl)methyl)sulfinyl)methyl)thiophene]
- IC50 [1, 4]: > 50 µM
- IC50 [2, 5]: > 50 µM
- IC50 [3, 11]: > 50 µM

SMILES: Cc1cccc([C@@H](c2ccccc2)[S@+]([O-])Cc2cccs2)c1 [Compound 8m, (R,R)-2-(((phenyl(m-tolyl)methyl)sulfinyl)methyl)thiophene]
- IC50 [1, 7]: > 50 µM
- IC50 [2, 8]: 1.56 ± 0.25 µM
- IC50 [3, 9]: > 50 µM

SMILES: Cc1ccccc1C(c1ccccc1)[S+]([O-])Cc1cccs1 (stereo not drawn) [Compound 5l, 2-(((phenyl(o-tolyl)methyl)sulfinyl)methyl)thiophene]
- IC50 [1, 4]: > 50 µM
- IC50 [2, 5]: 15.6 ± 1 µM
- IC50 [3, 11]: > 50 µM

SMILES: [O-][S+](Cc1cccs1)C(c1ccccc1)c1ccccc1I (stereo not drawn) [Compound 8i, 2-((((2-iodophenyl)(phenyl)methyl)sulfinyl)methyl)thiophene]
- IC50 [1, 10]: > 50 µM
- IC50 [2, 8]: 9.6 ± 1.2 µM
- IC50 [3, 6]: > 50 µM

SMILES: [O-][S@@+](Cc1cccs1)[C@@H](c1ccccc1)c1ccccc1F [Compound 6a, (S,S)-2-((((2-fluorophenyl)(phenyl)methyl)sulfinyl)methyl)thiophene]
- IC50 [1, 4]: > 50 µM
- IC50 [2, 5]: 13.3 ± 1.6 µM
- IC50 [3, 11]: > 50 µM

SMILES: [O-][S+](Cc1cccs1)C(c1ccccc1)c1ccccc1I (stereo not drawn) [Compound 5i, 2-((((2-iodophenyl)(phenyl)methyl)sulfinyl)methyl)thiophene]
- IC50 [1, 7]: > 50 µM
- IC50 [2, 8]: > 50 µM
- IC50 [3, 9]: > 50 µM

SMILES: COc1ccc([C@@H](c2ccccc2)[S@+]([O-])Cc2cccs2)cc1 [Compound 6t, (R,R)-2-((((4-methoxyphenyl)(phenyl)methyl)sulfinyl)methyl)thiophene]
- IC50 [1, 7]: 11 ± 3 µM
- IC50 [2, 8]: 17 ± 3 µM
- IC50 [3, 9]: > 50 µM

SMILES: Cc1ccccc1C(c1ccccc1)[S+]([O-])Cc1cccs1 (stereo not drawn) [Compound 8l, 2-(((phenyl(o-tolyl)methyl)sulfinyl)methyl)thiophene]
- IC50 [1, 4]: > 50 µM
- IC50 [2, 5]: 9.5 ± 0.9 µM
- IC50 [3, 11]: > 50 µM

SMILES: [O-][S@+](Cc1cccs1)[C@@H](c1ccccc1)c1ccccc1F [Compound 7a, (R,S)-2-((((2-fluorophenyl)(phenyl)methyl)sulfinyl)methyl)thiophene]
- IC50 [1, 4]: > 50 µM
- IC50 [2, 5]: 8.25 ± 0.16 µM
- IC50 [3, 11]: > 50 µM

SMILES: Cc1ccccc1C(c1ccccc1)[S+]([O-])Cc1cccs1 (stereo not drawn) [Compound 7l, 2-(((phenyl(o-tolyl)methyl)sulfinyl)methyl)thiophene]
- IC50 [1, 4]: > 50 µM
- IC50 [2, 5]: 3.8 ± 0.5 µM
- IC50 [3, 11]: > 50 µM

SMILES: [O-][S+](Cc1cccs1)C(c1ccccc1)c1cccc(C(F)(F)F)c1 (stereo not drawn) [Compound 7p, 2-(((phenyl(3-(trifluoromethyl)phenyl)methyl)sulfinyl)methyl)thiophene]
- IC50 [1, 7]: > 50 µM
- IC50 [2, 8]: 10 ± 1 µM
- IC50 [3, 6]: > 50 µM

SMILES: Cc1cccc([C@H](c2ccccc2)[S@@+]([O-])Cc2cccs2)c1 [Compound 7m, (S,S)-2-(((phenyl(m-tolyl)methyl)sulfinyl)methyl)thiophene]
- IC50 [1, 7]: > 50 µM
- IC50 [2, 8]: 1.2 ± 0.09 µM
- IC50 [3, 9]: 49 ± 3 µM

SMILES: [O-][S+](Cc1cccs1)C(c1ccccc1)c1ccc(F)cc1 (stereo not drawn) [Compound 5c, 2-((((4-fluorophenyl)(phenyl)methyl)sulfinyl)methyl)thiophene]
- IC50 [1, 4]: > 50 µM
- IC50 [2, 5]: 7.8 ± 0.7 µM
- IC50 [3, 11]: > 50 µM

SMILES: COc1cccc(C(c2ccccc2)[S+]([O-])Cc2cccs2)c1 (stereo not drawn) [Compound 7s, 2-((((3-methoxyphenyl)(phenyl)methyl)sulfinyl)methyl)thiophene]
- IC50 [1, 7]: > 50 µM
- IC50 [2, 8]: 1.56 ± 0.24 µM
- IC50 [3, 6]: > 50 µM

SMILES: [O-][S+](Cc1cccs1)C(c1ccc(F)cc1)c1ccc(Cl)cc1 (stereo not drawn) [Compound 6u, 2-((((4-chlorophenyl)(4-fluorophenyl)methyl)sulfinyl)methyl)thiophene]
- IC50 [1, 10]: > 50 µM
- IC50 [2, 8]: 12 ± 2 µM
- IC50 [3, 6]: > 50 µM

SMILES: [O-][S+](Cc1cccs1)C(c1ccccc1)c1cccc(F)c1 (stereo not drawn) [Compound 8b, 2-((((3-fluorophenyl)(phenyl)methyl)sulfinyl)methyl)thiophene]
- IC50 [1, 4]: > 50 µM
- IC50 [2, 5]: 9 ± 3 µM
- IC50 [3, 11]: > 50 µM

SMILES: COc1ccc([C@H](c2ccccc2)[S@@+]([O-])Cc2cccs2)cc1 [Compound 5t, (S,S)-2-((((4-methoxyphenyl)(phenyl)methyl)sulfinyl)methyl)thiophene]
- IC50 [1, 7]: > 50 µM
- IC50 [2, 8]: 16 ± 6 µM
- IC50 [3, 9]: > 50 µM

SMILES: COc1ccc([C@@H](c2ccccc2)[S@@+]([O-])Cc2cccs2)cc1 [Compound 7t, (S,R)-2-((((4-methoxyphenyl)(phenyl)methyl)sulfinyl)methyl)thiophene]
- IC50 [1, 7]: > 50 µM
- IC50 [2, 8]: 15 ± 2 µM
- IC50 [3, 9]: > 50 µM

SMILES: [O-][S@@+](Cc1cccs1)[C@H](c1ccccc1)c1cccc(Cl)c1 [Compound 5e, (S,R)-2-((((3-chlorophenyl)(phenyl)methyl)sulfinyl)methyl)thiophene]
- IC50 [1, 7]: > 50 µM
- IC50 [2, 8]: 3 ± 0.1 µM
- IC50 [3, 9]: > 50 µM

SMILES: [O-][S+](Cc1cccs1)C(c1ccccc1)c1cccc(F)c1 (stereo not drawn) [Compound 6b, 2-((((3-fluorophenyl)(phenyl)methyl)sulfinyl)methyl)thiophene]
- IC50 [1, 4]: > 50 µM
- IC50 [2, 5]: 28 ± 7 µM
- IC50 [3, 11]: > 50 µM

SMILES: [O-][S@@+](Cc1cccs1)[C@@H](c1ccccc1)c1ccc(I)cc1 [Compound 7k, (S,S)-2-((((4-iodophenyl)(phenyl)methyl)sulfinyl)methyl)thiophene]
- IC50 [1, 7]: > 50 µM
- IC50 [2, 8]: > 50 µM
- IC50 [3, 9]: > 50 µM
